From patent US12285462B2, “pH-triggered membrane peptide-mediated epitope tethering at cell surfaces” (UNIVERSITY OF RHODE ISLAND BOARD OF TRUSTEES, priority 2019, dated 2025)
Primed or numbered codes have the meaning given here. Where no end group is shown, it is not given here. Side-chain parts run from the residue outwards. The star is where a group is joined. Dnp = O=[N+]([O-])c1ccc(*)c([N+](=O)[O-])c1; PEG12′ = not defined here

Tested on: HeLa cells (tumor spheroids)
Assay: Complement-mediated killing of tumor spheroids (anti-DNP antibody or human IgM, human serum with active complement, PI staining)
Type: cell-based
Conditions: 5 µM construct 1 hour PBS pH6.5, anti-DNP antibody or human IgM 1 hr pH7.4, human serum with active complement and PI, FIG. 8, imaged 2 hours after treatment
Description: The key for induction of immunological response is a proper positioning of epitope at the surface of tumor cells, which was verified on 3-D tumor cancer cell culture (tumor spheroids). Briefly, a 2% agarose solution was made by dissolving in pH 7.4 PBS. 150 μL of the solution was pipetted into each well of a 48-well flat bottom tissue culture plate. After the agarose gel sufficiently settled (˜1 h), 150 μL of DMEM supplemented with 10% FBS and ciprofloxacin-HCl was added to each well. The covered plate was left in a humidified atmosphere at 37° C. and 5% CO2 in cell culture incubator for 24 h. On the next day, the excess medium was removed from the agarose layer. HeLa cells (10,000 cells) in 200 μL of DMEM containing 2% matrigel were added into each well and incubated for 3-4 days to allow the formation of spheroids. Matrigel was dissolved on ice overnight and added in ice cold DMEM at a concentration of 2.5% (to obtain a final concentration of 2% once added to the wells). Then the mixture was heated to 37° C. before being combined with the cells. […] After treatment, the spheroids were washed several times in 1 mL of PBS. Next, spheroids were treated with anti-DNP antibody labeled with 647 nm fluorescent dye at pH 7.4 followed by washing. Spheroids were also stained with DAPI to mark cell nucleus. […]

With “DNP-PEG12-pHLIP®: DNP-PEG12-NHS conjugated with single Lys residue at N-terminal of pHLIP® peptide Ac-AKDDQNPWRAYLDLLFPTDTLLLDLLWA (SEQ ID NO: 510) (Ac-AK([PEG12′-Dnp])DDQNPWRAYLDLLFPTDTLLLDLLWA)” as the substance, how does the “PI staining (red color) of dead or dying cells after complement-mediated attack” value read?
Its value is “plasma membrane of cells was comrpomized by complement-mediated attack and that the cells were dying”.
